The values below come from patent US4477456A (priority 1982, dated 1984).

In assay [1] the test system is characteristic stretching or writhing syndrome induced by phenylquinone. Description: animal or person. The settings on record: for ED50: Mus musculus, po, 0.5 h, read-out: Effect ED50, Oral PQW. In kind it is in vivo, female white mice.
In assay [2] the test system is Straub tail induced by morphine. Description: narcotic antagonist test: prevention of Straub tail induced by morphine sulfate. The assay is classed as in vivo, Female CF1 S mice. The note with it: for ED50: Mus musculus, sc, subcutaneous, challenge 30 mg/kg morphine sulfate i.p., read-out: Effect ED50, Subcutaneous Anti-Straub Tail.
The test system of assay [3] is anorexigenic effect (milk spots consumed). Description: animal or person. In kind it is in vivo, Female CF1 mice. The note with it: Mus musculus, po, read-out: Anorexigenic Effect, Effective Dose.
Assay [4] concerns Straub tail induced by morphine. The settings on record: known narcotic antagonists, Blumberg et al.; cited from earlier work.

As for `OCC1CC2CCC13CN(CC1CC1)CCC31c3cccc(O)c3OC21` (single isomer, unassigned) [Example 9, 3-cyclopropylmethyl-5-hydroxymethyl-1,2,3,4,5,6,7,7a-octahydro-4a,7-ethanobenzofuro[3,2-e]isoquinolin-9-ol], the ED50 in assay [1] is 0.28 mg/kg. Moreover, the “analgesic potency compared with morphine” value in assay [1] (mouse, in vivo) is “several times greater potency than morphine”.

For `CC(C)(C)C(C)(O)C1CC2CCC13CN(CC1CC1)CCC31c3cccc(O)c3OC21` (single isomer, unassigned) [Example 11, 3-Cyclopropylmethyl-5-(2-hydroxy-3,3-dimethyl-2-butyl)-1,2,3,4,5,6,7,7a-octahydro-4a,7-ethanobenzofuro[3,2-e]isoquinolin-9-ol], in assay [1], the ED50 is 5.2 mg/kg.

Consider `COc1cccc2c1OC1C3CCC4(CC3)CN(C)CCC214` (stereo not shown) [Example 1, 9-methoxy-3-methyl-1,2,3,4,5,6,7,7a-octahydro-4a,7-ethanobenzofuro[3,2-e]isoquinoline], for which the ED50 in assay [1] was 20.5 mg/kg; in assay [2], > 18 mg/kg. Further, the minimal effective dose in assay [3] was determined as 20 mg/kg.

Turning to `CN1CCC23c4cccc(O)c4OC2C2CCC3(CC2)C1` (stereo not shown) [Example 2, 3-methyl-1,2,3,4,5,6,7,7a-octahydro-4a,7-ethanobenzofuro[3,2-e]isoquinolin-9-ol], the ED50 is 12 mg/kg in assay [1] and 0.05 mg/kg in assay [2]. Besides, the minimal effective dose in assay [3] is > 324 mg/kg.

As to `CCCN1CCC23c4cccc(OC)c4OC2C2CCC3(CC2)C1` (stereo not shown) [Example 3, 9-Methoxy-3-propyl-1,2,3,4,5,6,7,7a-octahydro-4a,7-ethanobenzofuro[3,2-e]isoquinoline], the ED50 in assay [1] was > 135 mg/kg; in assay [2], 0.19 mg/kg.

`CCCN1CCC23c4cccc(O)c4OC2C2CCC3(CC2)C1.Cl` (stereo not shown) [Example 4, 3-propyl-1,2,3,4,5,6,7,7a-octahydro-4a,7-ethanobenzofuro[3,2-e]isoquinolin-9-ol hydrochloride]: the ED50 in assay [1] was 99 mg/kg; in assay [2] it was 0.009 mg/kg. Moreover, the “narcotic antagonism capability / antagonist character” value in assay [2] (Straub tail antagonism, in words) is “pure narcotic antagonists”. In addition, the minimal effective dose in assay [3] came out at 7 mg/kg.

On to `Oc1cccc2c1OC1C3CCC4(CC3)CN(CC3CC3)CCC214` (stereo not shown) [Example 6, 3-Cyclopropylmethyl-1,2,3,4,5,6,7,7a-octahydro-4a,7-ethanobenzofuro[3,2-e]isoquinolin-9-ol], for which the results for the ED50 in assay [1] and in assay [2] were 4.4 mg/kg and 0.005 mg/kg, respectively. In assay [3], the minimal effective dose stood at 46 mg/kg.

Consider `CC(O)C1CC2CCC13CN(CC1CC1)CCC31c3cccc(O)c3OC21` (stereo not shown) [Example 7, 3-Cyclopropylmethyl-5-(1-hydroxyethyl)-1,2,3,4,5,6,7,7a-octahydro-4a,7-ethanobenzofuro[3,2-e]isoquinolin-9-ol], for which the values for the ED50 in assay [1] and in assay [2] were 0.78 mg/kg and 0.08 mg/kg, respectively.

On to `CC(O)C1CC2C=CC13CN(CC1CC1)CCC31c3cccc(O)c3OC21` (stereo not shown) [Example 8, 3-Cyclopropylmethyl-5-(1-hydroxyethyl)-1,2,3,4,5,6,7,7a-octahydro-4a,7-ethenobenzofuro[3,2-e]isoquinolin-9-ol], for which the ED50 in assay [1] turned out to be 0.51 mg/kg; in assay [2], 0.024 mg/kg.

As to `CN1CC[C@]23c4c5ccc(O)c4O[C@H]2[C@@H](O)C=C[C@H]3[C@H]1C5` [Morphine, reference compound], in assay [1], the median effective dose (ED50) came to 3 mg/kg.

Take `C=CCN1CC[C@]23c4c5ccc(O)c4O[C@H]2[C@@H](O)C=C[C@H]3[C@H]1C5` [Nalorphine]: the “prevention of the induction of Straub tail by morphine” value in assay [4] is listed as “prevent the induction of Straub tail in mice”.

`C=CCN1CC[C@]23c4c5ccc(O)c4O[C@H]2C(=O)CC[C@@]3(O)[C@H]1C5` [Naloxone, reference compound]: the minimal effective dose in assay [3] is 4.8 mg/kg. Also, in assay [4], the “prevention of the induction of Straub tail by morphine” value is given as “prevent the induction of Straub tail in mice”.

With `CC(C)=CCN1CCC2(C)c3cc(O)ccc3CC1C2C` (stereo not shown) [Pentazocine, reference compound], the ED50 in assay [1] amounted to 56 mg/kg; in assay [2] it was 4 mg/kg.
